Activity calls are given as the source filed them. The calls are words filed in the database; no cut-off is given here.
Columns and labels:
[1] = biological target: T1, Oxysterols receptor LXR-beta (Homo sapiens) (UniProt P55055); experiment: Agonist activity at human LXRbeta transfected in HEK293 cells at 0.1 uM after 24 hrs by luciferase reporter gene assay relative to vehicle-treated control; type: cell-based
T1 sequence (whole entry): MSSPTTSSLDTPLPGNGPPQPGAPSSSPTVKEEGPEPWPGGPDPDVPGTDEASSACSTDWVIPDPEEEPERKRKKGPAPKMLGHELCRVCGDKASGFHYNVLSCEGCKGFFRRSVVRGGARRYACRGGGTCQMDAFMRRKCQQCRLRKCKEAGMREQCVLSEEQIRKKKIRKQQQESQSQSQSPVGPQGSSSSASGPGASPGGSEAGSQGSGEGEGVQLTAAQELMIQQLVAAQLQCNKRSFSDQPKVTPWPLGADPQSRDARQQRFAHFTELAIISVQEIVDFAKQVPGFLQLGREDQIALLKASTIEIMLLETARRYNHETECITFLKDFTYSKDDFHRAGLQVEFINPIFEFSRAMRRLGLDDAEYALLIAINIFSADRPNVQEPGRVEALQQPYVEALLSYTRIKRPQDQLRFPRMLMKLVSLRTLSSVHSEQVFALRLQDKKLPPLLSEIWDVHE

Mus musculus [2] = experiment: (§1) Antialzheimer activity in double transgenic B6C3 mouse overexpressing APP swedish mutant and PSEN1dE9 assessed as reduction of insoluble amyloid beta42 level at 10 mg/kg, ip administered 3 times per week measured after 6 weeks by ELISA relative to vehicle-treated control; type: functional; set-up: scale not given: the % may be the effect or the level left; details: route intraperitoneal
RAW264.7 = experiment: Cytotoxicity against mouse RAW264.7 cells assessed as inhibition of cell viability at 50 uM after 48 hrs by SRB assay relative to vehicle-treated control; type: cell-based; details: raw264.7, 48 h
Mus musculus [3] = experiment: as §1, with “of” for “of insoluble”, “plaque load in cortex” for “level”, “OC staining-based fluorescence microscopic analysis” for “ELISA”; type: functional; set-up: scale not given: the % may be the effect or the level left; details: route intraperitoneal
Mus musculus [4] = experiment: as §1, with “of” for “of insoluble”, “beta plaque load in brain” for “beta42 level”, “thioflavin S staining-based fluorescence microscopic analysis” for “ELISA”; type: functional, organism-based; set-up: dose 10 mg/kg
BV-2 = experiment: Upregulation of NEP mRNA expression in mouse BV2 cells at 0.01 to 1 uM after 18 hrs by real-time qPCR analysis; type: functional, cell-based
[5] = biological target: T2, Oxysterols receptor LXR-beta (Mus musculus) (UniProt Q60644); experiment: Agonist activity at LXRbeta in mouse BV2 cells assessed as degradation of intracellular soluble amyloid beta42 at 0.1 uM preincubated for 18 hrs followed by soluble amyloid beta42 addition measured after 24 hrs by ELISA relative to vehicle-treated control; type: cell-based; details: BV-2
T2 sequence (whole entry): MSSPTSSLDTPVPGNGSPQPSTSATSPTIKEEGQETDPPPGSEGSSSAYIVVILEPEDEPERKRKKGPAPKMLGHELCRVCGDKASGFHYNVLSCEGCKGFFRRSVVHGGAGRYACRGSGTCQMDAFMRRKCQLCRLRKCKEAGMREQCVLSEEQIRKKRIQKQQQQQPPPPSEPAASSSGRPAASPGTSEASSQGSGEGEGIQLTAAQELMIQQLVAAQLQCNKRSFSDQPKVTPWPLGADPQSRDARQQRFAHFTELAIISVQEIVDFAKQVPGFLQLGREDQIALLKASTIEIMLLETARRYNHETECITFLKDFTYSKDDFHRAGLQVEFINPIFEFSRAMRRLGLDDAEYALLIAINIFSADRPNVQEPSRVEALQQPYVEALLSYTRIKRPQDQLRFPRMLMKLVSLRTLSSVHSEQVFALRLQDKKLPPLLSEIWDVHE

[6] = biological target: T2, Oxysterols receptor LXR-beta (Mus musculus); experiment: Agonist activity at LXRbeta in mouse BV2 cells assessed as degradation of intracellular soluble amyloid beta42 at 1 uM preincubated for 18 hrs followed by soluble amyloid beta42 addition measured after 24 hrs by ELISA relative to vehicle-treated control; type: cell-based; details: BV-2
[7] = biological target: T2, Oxysterols receptor LXR-beta (Mus musculus); experiment: Agonist activity at LXRbeta in mouse BV2 cells assessed as upregulation of apoE protein expression at 1 uM after 48 hrs by Western blot analysis relative to vehicle-treated control; type: cell-based; details: BV-2
[8] = biological target: T2, Oxysterols receptor LXR-beta (Mus musculus); experiment: Agonist activity at LXRbeta in mouse RAW264.7 cells assessed as upregulation of ABCA1 protein expression after 18 to 48 hrs by Western blot analysis; type: cell-based
[9] = biological target: T1, Oxysterols receptor LXR-beta (Homo sapiens); experiment: Agonist activity at human LXRbeta transfected in HEK293 cells at 1 uM after 24 hrs by luciferase reporter gene assay relative to vehicle-treated control; type: cell-based

With `Cc1ccc(/C=C/C(=O)c2ccc(N)cc2O)o1` the fold change (FC) [1] was 1.07, the Activity (Mus musculus [2]) was 26% and the Activity (RAW264.7) was “Non-toxic”. For the same compound, the Activity (Mus musculus [3]) was 30%, the Activity (Mus musculus [4]) was “Active” and the Activity (BV-2) was “inactive”. For the same compound, the Activity [5] was 52%, the Activity [6] was 59% and the fold change (FC) [7] was 1.9. For the same compound, the Activity [8] was “Dose-dependent effect” and the fold change (FC) [9] was 1.79.
